In patent publication US11666562B2, “Ilaprazole for inhibiting the release of enveloped viruses from cells” (Northwestern University, priority 2020, dated 2023):

What was measured:
[1] = molecular target: T1, Tsg101-UEV (Tsg101 amino acids 1-145) (Homo sapiens, UniProt Q99816); assay: Fluorescence thermal shift (FTS) assay, binding to Tsg101-UEV; conditions: for Tm (melting temperature) shift of Tsg101-UEV: FTS, Sypro-Orange, no DTT
T1 construct: The recombinant Tsg101 fragment (amino acids 1-145), prepared as described above in Materials and Methods; His6 (N); thrombin protease cleavage site (N); made in house; host or cells: E. coli ROSETTA 2 (DE3) pLysS
T1 sequence (Q99816 1-145): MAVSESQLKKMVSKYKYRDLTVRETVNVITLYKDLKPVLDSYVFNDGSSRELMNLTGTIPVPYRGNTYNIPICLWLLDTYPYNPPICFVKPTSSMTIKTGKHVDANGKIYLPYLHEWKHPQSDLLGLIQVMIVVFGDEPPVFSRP
Experimental: The fluorescence-based thermal shift assay is based on the observation that a protein unfolds upon heating, exposing the hydrophobic residues within its tertiary structure. The unfolding temperature (Tm) is determined by the protein's primary sequence and solution environment. The FTS assay uses a fluorescent dye sensitive to a hydrophobic environment to probe protein stability and its modulation by small molecule ligands. The dye has a low fluorescence quantum yield when in a polar environment. Once in contact with the hydrophobic core normally buried within a folded protein that has become exposed during the thermal unfolding (melting) process, the quantum yield of the dye increases, thus providing a reporting signal. Furthermore, a protein's stability can be affected by ligand binding, resulting in an increase or decrease in its melting temperature. FTS assay uses the Tm shift upon binding of a ligand to identify hit compounds for drug discovery.
Identification of prazole compounds that bind the UEV ubiquitin-binding domain of Tsg101. We screened chemical compounds using a fluorescence thermal shift (FTS) assay (27, 28) to identify small molecules that bind directly to a truncated form of Tsg101 (amino acids 1-145) which contains the Ubiquitin E2 variant (UEV) ubiquitin-binding domain (FIG. 1). The UEV, which contains the PT/SAP binding domain in addition to the ubiquitin-binding domain, provides chaperone functions to HIV-1 Gag that is independent of its interaction with the PS/TAP motif, and contains the prazole binding site (5). This truncated Tsg101, called Tsg101-UEV, was used because full-length Tsg101 has significant solubility issues in aqueous solution. Tsg101 is an adaptor protein and thus lacks a readily deployable functional assay, making FTS a tractable approach to identify interacting compounds. FTS monitors protein thermal denaturation using SYPRO-Orange, a dye which fluoresces when bound to hydrophobic surfaces, which allows monitoring of the changes in hydrophobic surface exposure during protein denaturation (27). Since ligand binding affects protein thermal stability, it can be detected through modulation of protein thermal denaturation (melting) as a shift in melting temperature (Tm). Tsg101-UEV has a well-defined melting curve suitable for FTS. We used the FTS assay to identify compounds that bind to Tsg101-UEV.
Purification of Tsg101 (1-145). N-terminally His6-tagged Tsg101 UEV domain (amino acids 1-145), called Tsg101-UEV, was encoded in a pET-28b vector (Novagen—EMD Millipore), which also included a thrombin protease cleavage site (His6-Thrombin Site-Tsg101, 1-145). Tsg101-UEV was grown in LB broth with Kanamycin (30 μg/ml) in ROSETTA 2 (DE3) pLysS E. coli competent cells (EMD Millipore) and induced with 1 mM IPTG at room temperature for 3 h. Bacteria were collected by centrifugation at 4,000 rpm for 10 min at […]. Bacteria were suspended in 50 ml binding buffer (20 mM Tris-HCl, pH 7.9, 0.5 M NaCl, 5 mM Imidazole) with 1 mM PMSF, 0.1% NP40, and a Protease Inhibitor Cocktail Tablet (Roche) and sonicated for 3.5 min on ice. The sonicate was spun at 9,000 rpm for 1 h at […] in a Sorvall centrifuge. The supernatant was collected and passed through a 1.5 ml Ni-NTA Agarose column. The column was washed with 20 mM Tris-HCl, pH 7.9, 0.5 M NaCl, 30 mM Imidazole wash buffer. […] Protein concentration was determined with a Nano Drop Spectrophotometer at […]. […]

293T cells = assay: 293T cell toxicity; type: cell-based; conditions: at drug concentrations that inhibited release of HIV-1
Experimental: Drug potency and cell toxicity. EC50 calculations were determined by using AAT Bioquest's EC50 calculator. Cell toxicity at different concentrations of drugs as indicated was determine using the Cell Proliferation Reagent WST-1 (Roche Diagnostics) or cellular 96® Aqueous One Reagent viability reagent according to manufacturer's instructions. For 293T cells, the concentration of DMSO was 0.2% or less and assays were carried out with DMEM with 10% serum. Cell toxicity experiments were repeated twice.

Row | Structure (SMILES) | Tm shift of Tsg101-UEV on addition of DTT ([1]; FTS with reducing agent DTT) | Tm (melting temperature) shift of Tsg101-UEV [1] | Toxicity to 293T cells (293T cells) | Tm (melting temperature) shift of Tsg101-UEV ([1]; listed as tenatoprazole)
1 | COc1ccnc(C[S+]([O-])c2nc3ccc(-n4cccc4)cc3[nH]2)c1C (centres unmarked) [Ilaprazole, 2-[(4-methoxy-3-methylpyridin-2-yl)methylsulfinyl]-6-pyrrol-1-yl-1H-benzimidazole] | blocked by the addition of DTT | largest thermal shift | did not detect toxicity | –
2 | COc1ccc2[nH]c([S+]([O-])Cc3ncc(C)c(OC)c3C)nc2n1 (centres unmarked) [Tenatoprazole] | – | dose-dependent shift in the Tm | – | destabilizes the native protein structure
